Patent US20200178534A1, “INDUCTION OF FLORAL DEVELOPMENT IN PLANTS” (priority 2016, published 2020)

Columns and labels:
[1] = system: Arabidopsis thaliana, ecotype Columbia (Col-0) and attps7 knockout mutants; test: Appearance of flower buds / flowering time after spraying T6P signalling precursor; assay type: in vivo; design: key to flower bud had appeared (individual plant N): X: shown as crosses in highlighted boxes; conditions: for flower bud had appeared (individual plant N): 1 mM spray, day 5 after spraying
Description: In both cases it is possible to advance the development of the flowering inflorescence by several centimetres and advance flowering time by up to a week.
(§1) Seeds of Arabidopsis thaliana, ecotype Columbia (Col-0) and attps7 knockout mutants were surface-sterilized with 70% of ethanol for 2 min and 75% household bleach for 7 min, and grown on nutrient agar media (0.5×Murashige and Skoog plus Gamborg's vitamins (Sigma). 0.5% Sucrose and 0.7% Agar) in Petri plates. Seeds on the Petri plates were placed in a growth chamber (22° C., 150 μmol m^−2 s^−1, 16-h day). Seven days after plating, seedlings were transferred to pots of soil containing Rothamsted standard compost mix and full nutrition (one seedling per pot). Forty plants per A. thaliana type (n=40 Col-0, n=40 TPS7_3, n=40 TPS7_4.15) were grown at 22CC, 250 μmol m^−2 s^−1 irradiance, 16-h day. Eight days after sowing (DAS) plants were sprayed with 0.5 ml 1 mM oNPE-T6P (ortho-nitrphenyl)ethyl trehalose 6-phosphate dissolved in distilled water with the addition of 0.1% of Tween20 during the middle of the mid-photoperiod. Twenty-four hours after spraying (9 DAS), plants sprayed with 1 mM oNPE-T6P were exposed to 600 μmol m^−2 s^−1 irradiance for 1 h to release T6P from oNPE-T6P. Spraying was repeated at 12 and 16 DAS.
First, the appearance of the flower bud was quicker in plants sprayed with oNPE-T6P than with water.

[2] = system: Arabidopsis thaliana, ecotype Columbia (Col-0) and attps7 knockout mutants; test: Height of the flowering inflorescence at 26 DAS after spraying T6P signalling precursor; assay type: in vivo; conditions: versus water control
Description: Right hand bars in each panel represent plants treated with 1 mM oNPE. Left hand bars in each panel represent plants treated with water (controls). […] This reflects the advancement of flowering by oNPE.
as §1
Height of the flowering inflorescence was then measured at 26 DAS. […]

CC(OP(=O)(OC[C@H]1O[C@H](O[C@H]2O[C@H](CO)[C@@H](O)[C@H](O)[C@H]2O)[C@H](O)[C@@H](O)[C@@H]1O)OC(C)c1ccccc1[N+](=O)[O-])c1ccccc1[N+](=O)[O-] (stereo partly drawn) [oNPE-T6P, 6-O-bis[1-(2-nitrophenyl)-ethoxyphosphoryl]-D-trehalose]
flower bud had appeared (individual plant N) ([1]; Col-0): X
flower bud had appeared (individual plant N) ([1]; TPS7_3 mutant): X
flower bud had appeared (individual plant N) ([1]; TPS7_4.15 mutant): X
appearance of the flower bud compared with water ([1]; plants sprayed with 1 mM, versus water): quicker
height of the flowering inflorescence ([2]; Col-0, 1 mM): taller inflorescences
height of the flowering inflorescence ([2]; tps7, 1 mM): taller inflorescences
